The record followed here is patent publication US20110218100A1 (priority 2005, published 2011).

Molecules are shown by their SMILES.

The subject of assay [1] is Fusarium graminearum. Format: in vivo. Conditions: barley, curative spray, 125 g/ha of each active compound, evaluation 7 days after inoculation.
Assay [2] deals with Erysiphe graminis f.sp. tritici. Briefly: Erysiphe test (wheat)/curative. Format: in vivo. Conditions: curative spray, 125 g/ha of each active compound, evaluation 8 days after inoculation. As to the method: (§1) Solvent: 50 parts by weight of N,N-dimethylacetamide Emulsifier: 1 part by weight of alkylaryl polyglycol ether
To produce a suitable preparation of active compound, 1 part by weight of active compound is mixed with the stated amounts of solvent and emulsifier, and the concentrate is diluted with water to the desired concentration.
To test for curative activity, young plants are sprayed with spores of Erysiphe graminis f.sp. tritici. 48 hours after the inoculation, the plants are sprayed with the preparation of active compound at the stated application rate. The plants are placed in a greenhouse at a temperature of about 20° C. and a relative atmospheric humidity of about 80% to promote the development of mildew pustules. Evaluation is carried out 8 days after the inoculation. What is determined is the efficacy in %. 0% means an efficacy which corresponds to that of the control, whereas an efficacy of 100% means that no infection is observed.

Assay [3] concerns Pyrenophora teres. Briefly: Pyrenophora teres (barley) test/curative. As to conditions: curative spray, 50 g/ha of each active compound, evaluation 8 days after inoculation. Format: in vivo. How it is done: as §1
To produce a suitable preparation of active compound, 1 part by weight of active compound is mixed with the stated amounts of solvent and emulsifier, and the concentrate is diluted with water to the desired concentration or the active compound or a combination of active compounds in a commercially available formulation is diluted with water to the desired concentration.
To test for curative activity, young plants are sprayed with a conidia suspension of Pyrenophora teres. The plants remain for 48 hours in an incubation cabinet at 20° C. and a relative atmospheric humidity of 100% and are then sprayed with the preparation of active compound at the stated rate of application.
The plants are placed in a greenhouse at a temperature of approximately 20° C. and a relative atmospheric humidity of approximately 80%.
The test is evaluated 8 days after the inoculation.

Assay [4] concerns Penicillium brevicaule. Briefly: Penicillium brevicaule test (in vitro)/microtest. The class given is cell-based. As to conditions: 4 days incubation, optical density. As to the method:
The microtest was performed in liquid medium with potato-dextrose broth (PDB) using microtitre plates.
The active compound is applied as the technical active substance dissolved in aceton.
A spore suspension of Penicillium brevicaule was used for inoculation. After 4 days of incubation by darkness under shaking (10 Hrz), the optical density in each cavity was evaluated with the aid of a microtitre plate reader.
0% means an efficacy which corresponds to that of the control, while an efficacy of 100% means that no fungal growth is observed.

Turning to `CO/N=C(/C1=NOCCO1)c1ccccc1Oc1ncnc(Oc2ccccc2Cl)c1F` [(III-2), fluoxastrobin], the “Efficacy in % found” value in assay [1] worked out at 50%; in assay [2], 39%. Further, in assay [3], the “Efficacy in % (Act = actual efficacy)” value amounted to 22%.
`CON=C(C(=O)OC)c1ccccc1CON=C(C)c1cccc(C(F)(F)F)c1` [(III-4), trifloxystrobin] returned an Efficacy in % in assay [4] (0.003 ppm) of 1%.
Take `OC(Cc1ccccc1Cl)(Cn1nc[nH]c1=S)C1(Cl)CC1` (centres unmarked) [(II-15), prothioconazole]: the results for the “Efficacy in % found” value in assay [1] and in assay [2] were 58% and 33%, respectively. Further, in assay [3], the “Efficacy in % (Act = actual efficacy)” value came to 22%.
On to `Cn1cc(C(=O)Nc2ccc(F)cc2-c2ccc(Cl)c(Cl)c2)c(C(F)F)n1` [(I-23), N-(3′,4′-dichloro-5-fluoro-1,1′-biphenyl-2-yl)-3-(difluoromethyl)-1-methyl-1H-pyrazole-4-carboxamide], for which, in assay [3], the “Efficacy in % (Act = actual efficacy)” value turned out to be 22%.
With `CC(C)C1CCC(Cc2ccc(Cl)cc2)C1(O)Cn1cncn1` (centres unmarked) [(II-18), ipconazole], the Efficacy in % in assay [4] (0.003 ppm) was 8%.
For `CC(C)(C)C(O)(CCc1ccc(Cl)cc1)Cn1cncn1` (centres unmarked) [(II-17), tebuconazole], the “Efficacy in % (Act = actual efficacy)” value in assay [3] is recorded as 22%.
On to `Cc1nn(C)c(F)c1C(=O)Nc1ccccc1C(C)CC(C)C` (centres unmarked) [(I-2), N-[2-(1,3-dimethylbutyl)phenyl]-5-fluoro-1,3-dimethyl-1H-pyrazole-4-carboxamide], for which the “Efficacy in % found” value in assay [1] turned out to be 42%; in assay [2], 0%. Also, the “Efficacy in % (Act = actual efficacy)” value in assay [3] stood at 22%. This compound displayed an Efficacy in % in assay [4] (0.03 ppm) of 16%.
